The source of these data is PubChem BioAssay AID743359 (Molecular Libraries Program, Specialized Chemistry Center, …, 2014).

The test system of this experiment is isolated mouse liver mitochondria, Ca2+ swelling, A540 20 min. Briefly: mtPTP inhibitors blocking calcium-induced swelling, dose response, dry powder samples, uHTS hits, absorbance (AID 743359).

A word on the pIC50: it is −log10 of the IC50, conventionally taken in molar units. Broadly, the IC50 is the midpoint of a concentration-inhibition curve.

Structures are written as SMILES. pIC50: −log10 of the molar value. Calls of active or inactive are those of the source.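 The calls were made as follows: active = compounds whose half-maximal inhibitory concentration IC50 is 20 µM or lower; inactive = the rest.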

In the case of `CN1CCN(c2ccc(NC(=O)c3cccc(OCc4ccccc4)c3)cc2)CC1`, the pIC50 was 5.72.

On to `COc1ccc(Cl)cc1C(=O)Nc1ccc(N2CCN(C)CC2)cc1`, for which the pIC50 is 5.21.

For the compound `COc1ccc(Cl)cc1C(=O)Nc1cccc(CN2CCN(C(=O)OC(C)(C)C)CC2)c1`, the IC50 was > 50 µM (inactive).

Take `O=C(Nc1cc(Cl)cc(Cl)c1)c1cc(-c2cccc(O)c2)on1`: the pIC50 was greater than 6.41.

On to `O=C(Nc1cccc(F)c1)c1cc(-c2cccc(O)c2)on1`, for which the pIC50 is 5.34.

With `CN1CCN(c2ccc(NS(=O)(=O)c3cc(Cl)cc(Cl)c3)cc2)CC1`, the IC50 is 44.9 µM (inactive).

Consider `COc1ccc(Cl)cc1C(=O)Nc1ccc(N(C)C)cc1`, for which the pIC50 is 4.99.

`COc1ccc(Cl)c(C(=O)Nc2ccc(CCN3CCCCC3)cc2)c1`: the IC50 is > 50 µM (inactive).

Turning to `Cc1ccc(Cl)cc1NC(=O)c1cc(-c2cccc(O)c2)on1`, the pIC50 is greater than 6.41.

Take `CN1CCN(CCc2ccc(NS(=O)(=O)c3ccc(F)c(Cl)c3)cc2)CC1`: the IC50 was > 50 µM (inactive).

Regarding `O=C(Nc1ccc(Br)cc1)c1cc(C2CC2)on1`, the pIC50 is 5.20.

Regarding `O=S(=O)(Nc1ccc(CN2CCCCC2)cc1)c1cc(Cl)cc(Cl)c1`, the IC50 was > 50 µM (inactive).

On to `COc1ccccc1C(=O)Nc1ccc(C(=O)N2CCCCC2)cc1`, for which the IC50 was > 50 µM (inactive).

For `CC(C)c1cc(C(=O)Nc2ccc(F)cc2F)no1`, the IC50 is 24 µM (inactive).

In the case of `O=C(Nc1cccc(Cl)c1)c1cc(-c2cccc(O)c2)on1`, the pIC50 was greater than 6.41.

On to `CCc1ccccc1NC(=O)c1cc(-c2ccccc2)on1`, for which the IC50 is > 50 µM (inactive).

`Cc1cc(NC(=O)c2ccc(-n3cnnc3)cc2)no1`: the IC50 was > 50 µM (inactive).

With `CN1CCN(CCc2ccc(NS(=O)(=O)c3cc(Cl)cc(Cl)c3)cc2)CC1`, the IC50 was 47.8 µM (inactive).

Take `O=C(Nc1ccc(OCc2ccccc2)c(Cl)c1)c1cc(-c2cccc(O)c2)on1`: the IC50 was > 50 µM (inactive).

`O=C(Nc1cccc(Cl)c1)c1cc(-c2ccccc2)on1`: the IC50 was 47.2 µM (inactive).

As to `COc1ccc(Cl)c(C(=O)Nc2ccc(CCN3CCN(C(=O)OC(C)(C)C)CC3)cc2)c1`, the IC50 is > 50 µM (inactive).

Consider `O=S(=O)(Nc1ccc(CN2CCCCC2)cc1)c1ccc(F)c(Cl)c1`, for which the IC50 is > 50 µM (inactive).

Turning to `COc1ccc(Cl)cc1C(=O)Nc1ccc(CN2CCCCC2)cc1`, the pIC50 was 5.76.

As for `COc1cccc(-c2cc(C(=O)Nc3cc(Cl)ccc3C)no2)c1`, the IC50 is 40 µM (inactive).

Consider `O=C(Nc1ccc(CN2CCCCC2)cc1)c1cc(OCc2ccccc2)ccc1Cl`, for which the pIC50 is 5.61.

Take `O=C(Nc1ccc(CN2CCCCC2)cc1)c1cc(Cl)ccc1O`: the IC50 is > 50 µM (inactive).

As to `O=C(Nc1ccc(F)cc1F)c1cc(-c2ccccc2)on1`, the IC50 was > 50 µM (inactive).

On to `COc1ccc(Cl)cc1S(=O)(=O)Nc1ccc(CN2CCCCC2)cc1`, for which the IC50 is > 50 µM (inactive).

Turning to `CCCc1cc(C(=O)Nc2ccc(Br)cc2)no1`, the IC50 was > 50 µM (inactive).

With `COc1ccc(Cl)cc1C(=O)Nc1ccccc1`, the IC50 was 6.35 µM (inactive).

As to `O=C(Nc1ccc(CCN2CCCCC2)cc1)c1cccc(OCc2ccccc2)c1`, the pIC50 is 5.64.

Consider `Cc1ccc(NC(=O)c2cc(-c3cccc(O)c3)on2)cc1Cl`, for which the negative-log IC50 (pIC50) is 6.08.

As to `CC1(C)CCN(CCCC(=O)c2ccc(Br)cc2)CC1`, the pIC50 is 4.86.

As for `COc1ccc(Cl)cc1C(=O)Nc1ccc(N2CCCCC2)cc1`, the IC50 is > 50 µM (inactive).

For `CCN(CC)c1ccc(NC(=O)c2ccc(OC)c(Cl)c2)cc1`, the IC50 is > 50 µM (inactive).

Turning to `COc1ccc(Cl)cc1C(=O)Nc1ccc(CCN2CCN(C)CC2)cc1`, the pIC50 was 4.97.

As to `CC(C)C1CCN(CCCC(=O)c2ccc(Br)cc2)CC1`, the pIC50 is 4.99.

Regarding `CCN(C(=O)c1cc(Cl)ccc1OC)c1ccccc1`, the IC50 is > 50 µM (inactive).

Consider `COc1ccc(Cl)cc1C(=O)Nc1ccc(CCN2CCOCC2)cc1`, for which the pIC50 was 4.86.

With `COc1ccc(NC(=O)c2cc(-c3cccc(O)c3)on2)cc1Cl`, the pIC50 is greater than 6.41.

As to `COc1ccc(Cl)cc1C(=O)Nc1ccc(CN2CCNCC2)cc1`, the pIC50 is 5.65.

`O=C(Nc1ccc(CN2CCCCC2)cc1)c1cc(Cl)cc(OCc2ccccc2)c1`: the pIC50 was greater than 6.41.

`COc1ccc(Cl)cc1S(=O)(=O)Nc1ccc(CCN2CCN(C)CC2)cc1`: the IC50 is > 50 µM (inactive).

With `O=C(Nc1ccc(CN2CCCCC2)cc1)c1cccc(Cl)c1`, the pIC50 is 4.82.

Turning to `CN1CCN(Cc2ccc(NC(=O)c3cccc(OCc4ccccc4)c3)cc2)CC1`, the pIC50 is 5.48.

Turning to `O=S(=O)(Nc1ccc(CN2CCCCC2)cc1)c1cccc(Cl)c1`, the IC50 was > 50 µM (inactive).

`COc1ccc(Cl)cc1C(=O)Nc1ccc(CN2CCOCC2)cc1`: the pIC50 was 4.82.

Turning to `Cc1c(Cl)cccc1NC(=O)c1cc(-c2cccc(O)c2)on1`, the pIC50 is greater than 6.41.

`COc1ccc(Cl)c(C(=O)Nc2cccc(CN3CCN(C(=O)OC(C)(C)C)CC3)c2)c1`: the IC50 is > 50 µM (inactive).

Turning to `COc1ccc(Cl)cc1S(=O)(=O)Nc1ccc(CCN2CCCCC2)cc1`, the IC50 is > 50 µM (inactive).

Take `COc1ccc(Cl)cc1C(=O)Nc1cccc(CN2CCNCC2)c1`: the pIC50 was 5.32.

As to `COc1ccc(NC(=O)c2cc(Cl)cc(Cl)c2OC)cc1`, the IC50 was > 50 µM (inactive).

In the case of `COc1c(Cl)cccc1NC(=O)c1cc(-c2cccc(O)c2)on1`, the IC50 is 27.6 µM (inactive).

As to `CN1CCN(c2ccccc2NC(=O)c2ccc(OCc3ccccc3)cc2)CC1`, the pIC50 was 5.64.

Take `COc1ccc(C(=O)CCN2CCCC(C)C2)cc1` (centres undefined): the IC50 was 38 µM (inactive).

On to `CN1CCN(c2ccc(NS(=O)(=O)c3cccc(Cl)c3)cc2)CC1`, for which the IC50 is > 50 µM (inactive).

On to `O=C(Nc1cc(Cl)ccc1Cl)c1cc(-c2cccc(O)c2)on1`, for which the pIC50 is 5.80.

For `O=S(=O)(Nc1ccc(CCN2CCCCC2)cc1)c1ccc(F)c(Cl)c1`, the IC50 is > 50 µM (inactive).

Regarding `COc1ccccc1C(=O)Nc1ccc(CN2CCCCC2)cc1`, the IC50 is 46.5 µM (inactive).

For `O=C(Nc1ccccc1C(F)(F)F)c1cc(-c2ccccc2)on1`, the IC50 is > 50 µM (inactive).

Take `Cc1ccc(-c2cc(C(=O)Nc3cccc(Cl)c3)no2)cc1`: the IC50 is > 50 µM (inactive).

With `C[C@@H]1CCC[C@H](C)N1CCCC(=O)c1ccc(Br)cc1`, the IC50 is > 50 µM (inactive).

`COc1ccc(Cl)cc1S(=O)(=O)Nc1ccc(CN2CCN(C)CC2)cc1`: the IC50 is > 50 µM (inactive).

For `CN1CCN(Cc2ccc(NS(=O)(=O)c3cc(Cl)cc(Cl)c3)cc2)CC1`, the IC50 is 23.3 µM (inactive).

Regarding `CN1CCN(c2ccc(Cl)cc2NC(=O)/C=C/c2cccc(F)c2)CC1`, the pIC50 is 6.16.

Consider `O=C(Nc1cccc(Cl)c1Cl)c1cc(-c2cccc(O)c2)on1`, for which the pIC50 was 4.98.

With `O=C(Nc1ccc(CN2CCCCC2)cc1)c1cccc(OCc2ccccc2)c1`, the pIC50 was 6.02.

As for `O=C(Nc1ccc(Cl)cc1)c1cc(-c2cccc(O)c2)on1`, the pIC50 was 6.37.

Consider `COc1ccc(Cl)cc1C(=O)Nc1ccc(CN2CCN(C)CC2)cc1`, for which the pIC50 was 4.87.

For the compound `CC1CCN(CCCC(=O)c2ccc(Br)cc2)CC1`, the IC50 was 40.9 µM (inactive).

As for `CN1CCN(Cc2ccc(NS(=O)(=O)c3cccc(Cl)c3)cc2)CC1`, the IC50 was > 50 µM (inactive).

In the case of `COc1ccc(Cl)cc1S(=O)(=O)Nc1ccc(N2CCN(C)CC2)cc1`, the IC50 is > 50 µM (inactive).

With `COc1ccc(Cl)c(C(=O)Nc2ccc(CN3CCN(C(=O)OC(C)(C)C)CC3)cc2)c1`, the IC50 was 18.2 µM (inactive).

Consider `COc1ccc(Cl)c(C(=O)Nc2ccc(CN3CCN(C)CC3)cc2)c1`, for which the IC50 is > 50 µM (inactive).

With `COc1ccc(Cl)cc1C(=O)Nc1ccc(CCN2CCN(C(=O)OC(C)(C)C)CC2)cc1`, the pIC50 is 4.70.

Consider `CCCc1cc(C(=O)Nc2c(F)cc(F)cc2Br)no1`, for which the pIC50 is 5.30.

As to `COc1ccc(Cl)c(C(=O)Nc2ccc(CCN3CCN(C)CC3)cc2)c1`, the IC50 is > 50 µM (inactive).

Consider `COc1ccc(Cl)cc1C(=O)Nc1ccc(N2CCOCC2)cc1`, for which the IC50 was > 50 µM (inactive).

With `O=C(Nc1ccccc1OCc1ccccc1)c1cc(-c2cccc(O)c2)on1`, the IC50 was > 50 µM (inactive).

In the case of `O=C(Nc1cc(Cl)ccc1F)c1cc(-c2cccc(O)c2)on1`, the pIC50 was greater than 6.41.

`Cc1cc(NC(=O)c2cc(-c3ccc(F)cc3)on2)no1`: the IC50 was > 50 µM (inactive).

For the compound `COc1ccc(Cl)cc1C(=O)Nc1ccc(CCN2CCCCC2)cc1`, the pIC50 was 5.22.

As to `COc1ccc(Cl)c(C(=O)Nc2ccc(CCN3CCOCC3)cc2)c1`, the IC50 is > 50 µM (inactive).

For the compound `COc1ccc(NC(=O)c2cc(-c3ccc(Cl)cc3)on2)cc1Cl`, the IC50 is > 50 µM (inactive).

As for `COc1ccc(Cl)cc1C(=O)Nc1ccc(CCN2CCNCC2)cc1`, the pIC50 is 5.28.

On to `COc1ccc(Cl)c(C(=O)Nc2ccc(CN3CCOCC3)cc2)c1`, for which the IC50 is > 50 µM (inactive).

As to `O=C(Nc1ccc(CN2CCCCC2)cc1)c1ccc(Cl)c(OCc2ccccc2)c1`, the pIC50 is greater than 6.41.

Consider `O=C(Nc1ccc(N2CCCCC2)cc1)c1cccc(OCc2ccccc2)c1`, for which the IC50 is > 50 µM (inactive).

On to `CN1CCN(CCc2ccc(NC(=O)c3cccc(OCc4ccccc4)c3)cc2)CC1`, for which the pIC50 was 5.42.

As to `O=C(Nc1cccc(Cl)c1)c1cc(-c2ccc(Cl)cc2)on1`, the IC50 was > 50 µM (inactive).

Turning to `O=S(=O)(Nc1ccc(CCN2CCCCC2)cc1)c1cccc(Cl)c1`, the IC50 was > 50 µM (inactive).

Regarding `O=C(Nc1ccc(Cl)cc1)c1cc(-c2ccccc2)on1`, the IC50 was > 50 µM (inactive).

In the case of `COc1ccc(/C=C/C(=O)Nc2cccc(Cl)c2)cc1O`, the pIC50 is greater than 6.41.

As to `CN1CCN(CCc2ccc(NS(=O)(=O)c3cccc(Cl)c3)cc2)CC1`, the IC50 was > 50 µM (inactive).
